Measured values published in patent US12157746B2, “Tetrahydro-1H-pyrazino[2,1-a]isoindolylquinoline compounds for the treatment of autoimmune disease” (F. HOFFMANN-LA ROCHE AG, priority 2018, dated 2024).
pIC50: −log10 of the molar value.

The compounds below were run against T1, human TLR8 (Homo sapiens, UniProt Q9NR97) (assay: HEK293-Blue-hTLR-8 cells assay). Settings: HEK293-Blue-hTLR8 cells, R848 stimulation, 20 hrs, SEAP reporter; read-out: HEK/hTLR8 IC50.
T1 sequence (Q9NR97 27-1041): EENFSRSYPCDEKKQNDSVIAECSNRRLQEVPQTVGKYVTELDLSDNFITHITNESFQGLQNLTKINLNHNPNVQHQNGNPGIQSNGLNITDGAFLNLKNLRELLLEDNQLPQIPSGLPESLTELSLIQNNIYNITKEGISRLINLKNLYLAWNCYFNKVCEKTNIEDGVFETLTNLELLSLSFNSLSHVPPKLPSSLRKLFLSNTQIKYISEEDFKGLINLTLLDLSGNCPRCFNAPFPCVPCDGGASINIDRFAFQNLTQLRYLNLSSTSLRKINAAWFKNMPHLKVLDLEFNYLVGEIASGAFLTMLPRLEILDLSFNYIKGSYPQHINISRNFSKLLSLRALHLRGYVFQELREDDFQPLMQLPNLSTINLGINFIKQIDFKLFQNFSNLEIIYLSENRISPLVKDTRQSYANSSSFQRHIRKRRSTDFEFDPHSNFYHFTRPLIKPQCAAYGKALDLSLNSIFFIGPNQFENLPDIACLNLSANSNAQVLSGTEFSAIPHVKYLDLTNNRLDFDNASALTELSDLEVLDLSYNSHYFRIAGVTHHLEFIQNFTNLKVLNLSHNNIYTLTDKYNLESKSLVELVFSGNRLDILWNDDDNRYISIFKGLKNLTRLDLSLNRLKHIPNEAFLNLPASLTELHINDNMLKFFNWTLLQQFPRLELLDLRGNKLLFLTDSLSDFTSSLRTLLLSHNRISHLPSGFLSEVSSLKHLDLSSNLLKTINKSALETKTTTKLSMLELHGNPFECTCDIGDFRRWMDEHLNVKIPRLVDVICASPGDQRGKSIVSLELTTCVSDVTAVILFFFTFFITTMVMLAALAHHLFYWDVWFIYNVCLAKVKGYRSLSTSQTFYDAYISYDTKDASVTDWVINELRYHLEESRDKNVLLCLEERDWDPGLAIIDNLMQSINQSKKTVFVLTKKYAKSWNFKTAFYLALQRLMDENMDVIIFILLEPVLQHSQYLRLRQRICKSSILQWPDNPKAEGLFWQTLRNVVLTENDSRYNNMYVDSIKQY
Type: cell-based
Description: HEK293-Blue-hTLR-8 Cells Assay:
A stable HEK293-Blue-hTLR-8 cell line was purchased from InvivoGen (Cat. #: hkb-htlr8, San Diego, California, USA). These cells were originally designed for studying the stimulation of human TLR8 by monitoring the activation of NF-κB. A SEAP (secreted embryonic alkaline phosphatase) reporter gene was placed under the control of the IFN-β minimal promoter fused to five NF-κB and AP-1-binding sites. The SEAP was induced by activating NF-κB and AP-1 via stimulating HEK-Blue hTLR8 cells with TLR8 ligands. Therefore the reporter expression was declined by TLR8 antagonist under the stimulation of a ligand, such as R848, for incubation of 20 hrs. The cell culture supernatant SEAP reporter activity was determined using QUANTI-Blue™kit (Cat. #: rep-qb1, Invivogen, San Diego, Ca, USA) at a wavelength of 640 nm, a detection medium that turns purple or blue in the presence of alkaline phosphatase.
HEK293-Blue-hTLR8 cells were incubated at a density of 250,000-450,000 cells/mL in a volume of 170 μL in a 96-well plate in Dulbecco's Modified Eagle's medium (DMEM) containing 4.5 g/L glucose, 50 U/mL penicillin, […], […], 2 mM L-glutamine, 10% (v/v) heat-inactivated fetal bovine serum with addition of 20 μL test compound 1n a serial dilution in the presence of final DMSO at 1% and 10 μL of 60 uM R848 in above DMEM, perform incubation under 37° C. in a CO2 incubator for 20 hrs. Then 20 μL of the supernatant from each well was incubated with 180 μL Quanti-blue substrate solution at 37° C. for 2 hrs and the absorbance was read at 620-655 nm using a spectrophotometer. The signaling pathway that TLR8 activation leads to downstream NF-κB activation has been widely accepted, and therefore similar reporter assay was modified for evaluating TLR8 antagonist.
C[C@@H]1CN(c2ccc(C#N)c3ncccc23)C[C@@H]2c3ccc(N4C[C@H](N)[C@@H](O)C4)cc3CN12 [Example 40A, 5-[(4R,10bS)-8-[(3S,4S)-3-amino-4-hydroxy-pyrrolidin-1-yl]-4-methyl-3,4,6,10b-tetrahydro-1H-pyrazino[2,1-a]isoindol-2-yl]quinoline-8-carbonitrile] was tested, and the pIC50 was 8.85.
C[C@@H]1CN(c2ccc(C#N)c3ncccc23)C[C@@H]2c3ccc(N4CCNC[C@@H]4CO)cc3CN12 [Example 10, 5-[(4R,10bS)-8-[(2R)-2-(hydroxymethyl)piperazin-1-yl]-4-methyl-3,4,6,10b-tetrahydro-1H-pyrazino[2,1-a]isoindol-2-yl]quinoline-8-carbonitrile] was tested, and the pIC50 was greater than 8.49.
CO[C@@H]1CN(c2ccc3c(c2)CN2[C@H](C)CN(c4ccc(C#N)n5nccc45)C[C@H]32)CC[C@@H]1N [Example 105, 4-[(4R,10bS)-8-[(3R,4S)-4-amino-3-methoxy-1-piperidyl]-4-methyl-3,4,6,10b-tetrahydro-1H-pyrazino[2,1-a]isoindol-2-yl]pyrazolo[1,5-a]pyridine-7-carbonitrile] was tested, and the pIC50 was 8.39.
For [2H]c1ccc2c(N3C[C@@H](C)N4Cc5cc(N[C@H]6CNC[C@H]6F)ccc5[C@H]4C3)ccc(C#N)c2n1 [Example 91, 5-[(4R,10bS)-8-[[(3S,4R)-4-fluoropyrrolidin-3-yl]amino]-4-methyl-3,4,6,10b-tetrahydro-1H-pyrazino[2,1-a]isoindol-2-yl]-2-deuterio-quinoline-8-carbonitrile], the pIC50 was 9.22.
CO[C@@H]1CN(c2ccc3c(c2)CN2[C@H](C)CN(c4ccc(C#N)n5ncc(F)c45)C[C@H]32)C[C@H]1N [Example 113, 4-[(4R,10bS)-8-[(3R,4R)-3-amino-4-methoxy-pyrrolidin-1-yl]-4-methyl-3,4,6,10b-tetrahydro-1H-pyrazino[2,1-a]isoindol-2-yl]-3-fluoro-pyrazolo[1,5-a]pyridine-7-carbonitrile] was tested, and the pIC50 was 8.70.
In the case of C[C@@H]1CN(c2ccc(C#N)n3nccc23)C[C@@H]2c3ccc(N4CC[C@@H](N)C4)cc3CN12 [Example 96, 4-[(4R,10bS)-8-[(3R)-3-aminopyrrolidin-1-yl]-4-methyl-3,4,6,10b-tetrahydro-1H-pyrazino[2,1-a]isoindol-2-yl]pyrazolo[1,5-a]pyridine-7-carbonitrile], the pIC50 was 8.40.
With C[C@@H]1CN(c2ccc(C#N)c3ncccc23)C[C@@H]2c3ccc(N4C[C@@H](N)[C@](C)(O)C4)cc3CN12 [Example 45, 5-[(4R,10bS)-4-methyl-8-[trans-(3R,4R)-4-amino-3-hydroxy-3-methyl-pyrrolidin-1-yl]-3,4,6,10b-tetrahydro-1H-pyrazino[2,1-a]isoindol-2-yl]quinoline-8-carbonitrile] the pIC50 was greater than 8.49.
Compound C[C@@H]1CN(c2ccc(C#N)c3ncccc23)C[C@@H]2c3ccc(N4CCC(C)(N)CC4)cc3CN12 [Example 51, 5-[(4R,10bS)-8-(4-amino-4-methyl-1-piperidyl)-4-methyl-3,4,6,10b-tetrahydro-1H-pyrazino[2,1-a]isoindol-2-yl]quinoline-8-carbonitrile] has a pIC50 greater than 9.52.
Work on C[C@@H]1CN(c2ccc(C#N)c3ncsc23)C[C@@H]2c3ccc(N4CCNCC4)cc3CN12 [Example 6, 7-[(4R,10bS)-4-methyl-8-piperazin-1-yl-3,4,6,10b-tetrahydro-1H-pyrazino[2,1-a]isoindol-2-yl]-1,3-benzothiazole-4-carbonitrile] yielded a pIC50 greater than 8.49.
With C[C@@H]1CN(c2ccc(C#N)n3nccc23)C[C@@H]2c3ccc(N[C@H]4CNC[C@H]4F)cc3CN12 [Example 98, 4-[(4R,10bS)-8-[[(3S,4R)-4-fluoropyrrolidin-3-yl]amino]-4-methyl-3,4,6,10b-tetrahydro-1H-pyrazino[2,1-a]isoindol-2-yl]pyrazolo[1,5-a]pyridine-7-carbonitrile] the pIC50 was 8.06.
With C[C@@H]1CN(c2ccc(C#N)c3ncccc23)C[C@@H]2c3ccc(N4CCNC[C@H]4CO)cc3CN12 [Example 11, 5-[(4R,10S)-8-[(2S)-2-(hydroxymethyl)piperazin-1-yl]-4-methyl-3,4,6,10b-tetrahydro-1H-pyrazino[2,1-a]isoindol-2-yl]quinoline-8-carbonitrile] the pIC50 was greater than 8.49.
C[C@@H]1CN(c2ccc(C#N)c3ncccc23)C[C@@H]2c3ccc(N4C[C@@H](N)[C@@H](F)C4)cc3CN12 [Example 47, 5-[(4R,10bS)-8-[(3R,4S)-3-amino-4-fluoro-pyrrolidin-1-yl]-4-methyl-3,4,6,10b-tetrahydro-1H-pyrazino[2,1-a]isoindol-2-yl]quinoline-8-carbonitrile] showed a pIC50 of 9.22.
C[C@@H]1CN(c2ccc(C#N)c3ncccc23)C[C@@H]2c3ccc(N4CCOC[C@H](N)C4)cc3CN12 [Example 54A, 5-[(4R,10bS)-8-[(6R)-6-amino-1,4-oxazepan-4-yl]-4-methyl-3,4,6,10b-tetrahydro-1H-pyrazino[2,1-a]isoindol-2-yl]quinoline-8-carbonitrile] showed a pIC50 greater than 8.49.
COC1CN(c2ccc3c(c2)CN2C3CN(c3ccc(C#N)c4ncccc34)C[C@H]2C)CC1N (single isomer, unassigned) [Example 16B] showed a pIC50 greater than 8.49.
Compound CO[C@@H]1CN(c2ccc3c(c2)CN2[C@H](C)CN(c4ccc(C#N)n5nccc45)C[C@H]32)CC[C@H]1N [Example 104, 4-[(4R,10bS)-8-[(3R,4R)-4-amino-3-methoxy-1-piperidyl]-4-methyl-3,4,6,10b-tetrahydro-1H-pyrazino[2,1-a]isoindol-2-yl]pyrazolo[1,5-a]pyridine-7-carbonitrile] has a pIC50 of 8.49.
With C[C@@H]1CN(c2ccc(C#N)c3ncccc23)C[C@@H]2c3ccc(OCCN(C)C)cc3CN12 [Example 25, 5-[(4R,10bS)-8-[2-(dimethylamino)ethoxy]-4-methyl-3,4,6,10b-tetrahydro-1H-pyrazino[2,1-a]isoindol-2-yl]quinoline-8-carbonitrile] the pIC50 was greater than 8.49.
C[C@@H]1CN(c2ccc(C#N)c3ncccc23)C[C@@H]2c3ccc(N4CC(N)C5(COC5)C4)cc3CN12 (stereo partly drawn) [Example 18, 5-[(4R,10bS)-8-(5-amino-2-oxa-7-azaspiro[3.4]octan-7-yl)-4-methyl-3,4,6,10b-tetrahydro-1H-pyrazino[2,1-a]isoindol-2-yl]quinoline-8-carbonitrile] showed a pIC50 greater than 8.49.
For C[C@@H]1CN(c2ccc(C#N)n3nccc23)C[C@@H]2c3ccc(N4CCNCC4)cc3CN12 [Example 5, 4-[(4R,10bS)-4-methyl-8-piperazin-1-yl-3,4,6,10b-tetrahydro-1H-pyrazino[2,1-a]isoindol-2-yl]pyrazolo[1,5-a]pyridine-7-carbonitrile], the pIC50 was greater than 8.49.
N#Cc1ccc(N2CCN3Cc4cc(N5CCNCC5)ccc4C3C2)c2scnc12 (centres unmarked) [Example 4, 7-(8-piperazin-1-yl-3,4,6,10b-tetrahydro-1H-pyrazino[2,1-a]isoindol-2-yl)-1,3-benzothiazole-4-carbonitrile] gave a pIC50 greater than 8.49.
With C[C@@H]1CN(c2ccc(C#N)n3nccc23)C[C@@H]2c3ccc(N4C[C@@H](N)[C@H](O)C4)cc3CN12 [Example 110, 4-[(4R,10bS)-8-[(3R,4R)-3-amino-4-hydroxy-pyrrolidin-1-yl]-4-methyl-3,4,6,10b-tetrahydro-1H-pyrazino[2,1-a]isoindol-2-yl]pyrazolo[1,5-a]pyridine-7-carbonitrile] the pIC50 was 8.30.
